Laboratory results: publication PMC7168933, “Design, Synthesis and Biochemical Evaluation of Novel Ethanoanthracenes and Related Compounds to Target Burkitt’s Lymphoma” (Pharmaceuticals, 2020)

Key:
[1] = system: MUTU-1 Burkitt lymphoma cell line (EBV+); details: 24 h
[2] = system: MUTU-1 Burkitt lymphoma cell line (EBV+); assay: cells; details: Mutu-1, 24 h; for viability at 10 µM: read-out: MUTU-1 Cell Viability % 10 μM, 10 μM, 24 h; for IC50: read-out: IC50 MUTU-I 24 h; for viability at 1 µM: read-out: MUTU-1 Cell Viability % 1 μM, 1 μM, 24 h
[3] = system: DG-75 Burkitt lymphoma cell line (EBV−, chemoresistant); assay: cells; details: Homo sapiens, DG-75, 48 h; for viability at 1 µM: read-out: DG-75 Cell Viability % 1 μM, 1 μM, 48 h; for viability at 10 µM: read-out: DG-75 Cell Viability % 10 μM, 10 μM, 48 h

Row | SMILES | MUTU-1 Cell Viability % 1 μM ([1]; 1 μM) [%] | viability at 10 µM [2] [%] | melting point [°C] | viability at 1 µM [3] [%] | viability at 10 µM [3] [%] | cell viability in MUTU-I cell line (1 and 10 μM together or concentration not stated) [1] | IC50 [2] [µM] | viability at 1 µM [2] [%] | MUTU-1 Cell Viability % 10 μM ([1]; 10 μM) [%]
1 | O=C1C2C3c4ccccc4C(/C=C/[N+](=O)[O-])(c4ccccc43)C2C(=O)N1CO (centres unmarked) [Compound 13n, (E)-13-(Hydroxymethyl)-9-(2-nitrovinyl)-9,10-dihydro-9,10-[3,4]epipyrroloanthracene-12,14-dione] | 0 | 1.8 | 230 to 232 | 74.6 | 20.4 |  |  |  | 
2 | O=[N+]([O-])C=CC12c3ccccc3C(Cl)(c3ccccc31)c1ccccc12 [Compound 20d, (E)-9-Chloro-10-(2-nitrovinyl)-9,10-dihydro-9,10-[1,2]benzenoanthracene] |  | 0.34 | 259 to 261 | 46 | 0 | < 6% | 0.28 | 0.95 | 
3 | Nc1ccc(N2C(=O)C3C4c5ccccc5C(/C=C/[N+](=O)[O-])(c5ccccc54)C3C2=O)cc1 (centres unmarked) [Compound 16n, (E)-13-(4-Aminophenyl)-9-(2-nitrovinyl)-9,10-dihydro-9,10-[3,4]epipyrroloanthracene-12,14-dione] |  | 3.7 | > 300 | 20.8 | 0.18 |  | 0.3 | 1.7 | 
4 | N#CC(C#N)=CC12c3ccccc3C(c3ccccc31)C1C(=O)N(c3ccccc3)C(=O)C12 (centres unmarked) [Compound 23f, 2-((12,14-Dioxo-13-phenyl-9,10-[3,4]epipyrroloanthracen-9(10H)-yl)methylene)malononitrile] |  | 71.8 | 255 to 258 | 82 | 81.6 |  |  | 78.9 | 
5 | CC/C(=C\C12c3ccccc3C(c3ccccc31)C1C(=O)N(c3ccc(OC)cc3)C(=O)C12)[N+](=O)[O-] (centres unmarked) [Compound 17f] |  | 84.5 | 254 to 256 | 91.4 | 85.1 |  |  | 86.5 | 
6 | COC(=O)C1C2c3ccccc3C(/C=C/[N+](=O)[O-])(c3ccccc32)C1C(=O)OC (centres unmarked) [Compound 19e, Dimethyl (E)-9-(2-nitrovinyl)-9,10-dihydro-9,10-ethanoanthracene-11,12-dicarboxylate] |  | 10.7 | 141 to 143 | 102 | 10.3 |  |  | 84.7 | 
7 | O=C1C2C3c4ccccc4C(/C=C/[N+](=O)[O-])(c4ccccc43)C2C(=O)N1CCc1ccccc1 (centres unmarked) [Compound 17n] |  | 2 | 152 to 156 | 19.9 | 0.07 |  | 0.26 | 2.8 | 
8 | O=c1n(-c2ccccc2)c(=O)n2n1C1c3ccccc3C2(/C=C/[N+](=O)[O-])c2ccccc21 [Compound 18, (E)-9-(2-Nitrovinyl)-14-phenyl-9,10-dihydro-9,10-[1,2]epitriazoloanthracene-13,15-dione] |  | 13.2 | 168 to 169 | 87.3 | 13.2 |  |  | 75 | 
9 | O=C1C2C3c4ccccc4C(/C=N/O)(c4ccccc43)C2C(=O)N1c1ccccc1 (centres unmarked) [Compound 23k, (E)-12,14-Dioxo-13-phenyl-9,10-[3,4]epipyrroloanthracene-9(10H)-carbaldehyde oxime] |  | 83.9 | 238 to 242 | 81.7 | 74.1 |  |  | 96.9 | 
10 | O=C1C2C3c4ccccc4C(/C=C/[N+](=O)[O-])(c4ccccc43)C2C(=O)N1c1ccc(Br)cc1 (centres unmarked) [Compound 16g, (E)-13-(4-Bromophenyl)-9-(2-nitrovinyl)-9,10-dihydro-9,10-[3,4]epipyrroloanthracene-12,14-dione] |  | 1.1 | 267 to 268 | 28.2 | 0.55 |  | 0.22 | 2.1 | 
11 | CC/C(=C\C12c3ccccc3C(c3ccccc31)C1C(=O)N(c3ccccc3)C(=O)C12)[N+](=O)[O-] (centres unmarked) [Compound 17b, (E)-9-(2-Nitrobut-1-en-1-yl)-13-phenyl-9,10-dihydro-9,10-[3,4]epipyrroloanthracene-12,14-dione] |  | 83.4 | 259 to 263 | 96.4 | 99.9 |  |  | 92.6 | 
12 | CC(=O)Oc1cccc(N2C(=O)C3C4c5ccccc5C(/C=C/[N+](=O)[O-])(c5ccccc54)C3C2=O)c1 (centres unmarked) [Compound 16m, (E)-3-(9-(2-Nitrovinyl)-12,14-dioxo-9,10-dihydro-9,10-[3,4]epipyrroloanthracen-13-yl)phenyl acetate] |  | 1.2 | 246 to 248 | 35.9 | 0 |  | 0.23 | 2 | 
13 | O=[N+]([O-])CCC12c3ccccc3C(c3ccccc31)c1ccccc12 [Compound 20e, 9-(2-Nitroethyl)-9,10-dihydro-9,10-[1,2]benzenoanthracene] |  | 111 | 185 to 187 | 97.6 | 97.2 |  |  | 98.9 | 
14 | O=C(c1ccccc1)c1ccc(N2C(=O)C3C4c5ccccc5C(/C=C/[N+](=O)[O-])(c5ccccc54)C3C2=O)cc1 (centres unmarked) [Compound 16i, (E)-13-(4-Benzoylphenyl)-9-(2-nitrovinyl)-9,10-dihydro-9,10-[3,4]epipyrroloanthracene-12,14-dione] |  | 1.2 | 232 to 234 | 77.5 | 2.7 |  | 0.24 | 2 | 
15 | C/C(=C\C12c3ccccc3C(c3ccccc31)C1C(=O)NC(=O)C12)[N+](=O)[O-] (centres unmarked) [Compound 13h, (E)-9-(2-Nitroprop-1-en-1-yl)-9,10-dihydro-9,10-[3,4]epipyrroloanthracene-12,14-dione] |  | 82.6 | 296 to 300 | 106 | 101 |  |  | 99.7 | 
16 | CCC(=CC12c3ccccc3C(c3ccccc31)c1ccccc12)[N+](=O)[O-] [Compound 20c, (E)-9-(2-Nitrobut-1-en-1-yl)-9,10-dihydro-9,10-[1,2]benzenoanthracene] |  | 102 | 210 to 211 | 95.1 | 84.8 |  |  | 106 | 
17 | N/N=C/C12c3ccccc3C(c3ccccc31)C1C(=O)NC(=O)C12 (centres unmarked) [Compound 23g, (E)-9-(Hydrazonomethyl)-9,10-dihydro-9,10-[3,4]epipyrroloanthracene-12,14-dione] |  | 101 | 245 to 247 | 78.1 | 55 |  |  | 95.2 | 
18 | O=CC12c3ccccc3C(c3ccccc31)c1ccccc12 [Compound 20f] |  | < 5 |  | 72.9 | 81.7 |  |  | 97.9 | 5.4
19 | O=[N+]([O-])/C=C/C12c3ccccc3C(c3ccccc31)c1ccccc12 [Compound 20a, (E)-9-(2-nitrovinyl)-9,10-dihydro-9,10-[1,2]benzenoanthracene] |  | 1.3 |  | 90.2 | 0.091 | < 6% |  | 6 | 
20 | COc1cc(N2C(=O)C3C4c5ccccc5C(/C=C/[N+](=O)[O-])(c5ccccc54)C3C2=O)cc(OC)c1OC (centres unmarked) [Compound 16f, (E)-9-(2-Nitrovinyl)-13-(3,4,5-trimethoxyphenyl)-9,10-dihydro-9,10-[3,4]epipyrroloanthracene-12,14-dione] |  | 1.1 | 270 to 272 | 25.6 | 0.46 |  | 0.24 | 1.8 | 
21 | C/C(=C\C12c3ccccc3C(Cl)(c3ccccc31)C1C(=O)NC(=O)C12)[N+](=O)[O-] (centres unmarked) [Compound 13k, (E)-9-Chloro-10-(2-nitroprop-1-en-1-yl)-9,10-dihydro-9,10-[3,4]epipyrroloanthracene-12,14-dione] |  | 51.6 | 295 to 297 | 78.2 | 101 |  |  | 83.3 | 
22 | CC/C(=C\C12c3ccccc3C(Cl)(c3ccccc31)C1C(=O)OC(=O)C12)[N+](=O)[O-] (centres unmarked) [Compound 13f, (E)-9-Chloro-10-(2-nitrobut-1-en-1-yl)-9,10-dihydro-9,10-[3,4]furanoanthracene-12,14-dione] |  | 91.6 | 259 to 263 | 79.9 | 95.1 |  |  | 85.3 | 
23 | OCC12c3ccccc3C(c3ccccc31)c1ccccc12 [Compound 20g] |  | 103 |  | 97 | 68.7 | inactive |  | 101 | 
24 | O=C1NC(=O)C2C1C1c3ccccc3C2(O)c2ccccc21 (centres unmarked) [Compound 21k, 9-Hydroxy-9,10-dihydro-9,10-[3,4]epipyrroloanthracene-12,14-dione] |  | 100 | 253 to 255 | 65.9 | 80.9 |  |  | 104 | 
